Reference: publication PMC5736629, “Allosteric modulation of protein-protein interactions by individual lipid binding events” (Nature Communications, 2017)
Read-outs that look alike come from different tables or passages of the source.

Key:
[1] = biological target: GlnK; set-up: method as in earlier work; conditions: 298K, absence of detergent, ref 2 (supplement), cited from earlier work
[2] = biological target: T1, AmtB (Escherichia coli, UniProt P69681); experiment: Native MS lipid titration, lipid binding to AmtB (equilibrium-coupled binding model); conditions: 50 µM ADP, 298 K
T1 construct: pelB signal peptide (N, cleaved yes); 10x His-tag (N, cleaved yes); made in house; host or cells: Escherichia coli C41(DE3), pET15b
Protocol: (§1) A stock of ADP was prepared by dissolving the ammonium salt form of ADP in water followed by adjusting the pH with ammonium hydroxide to 7.0. Serial dilutions into MS buffer (200 mM ammonium acetate, 0.5% C8E4, and pH adjusted to 7.4 with ammonium hydroxide) supplemented with 5 mM BME was performed to prepare ADP at certain concentrations. Phospholipids were prepared as previously described. In brief, stock solutions of each phospholipid were resuspended in chloroform, aliqouted, and chloroform was removed by a steady stream on nitrogen gas. Lipid films were placed under vacuum overnight to prepare to resuspend in MS buffer supplemented with 5 mM 2-mercaptoethanol. Phospholipid concentration was determined by phosphorus analysis.

[3] = biological target: T2, AmtB–GlnK complex (Escherichia coli, UniProt P69681); experiment: Native MS lipid titration, lipid binding to AmtB–GlnK (equilibrium-coupled binding model); conditions: 50 µM ADP, 298 K
T2 construct: pelB signal peptide (N, cleaved yes); 10x His-tag (N, cleaved yes); made in house; host or cells: AmtB: Escherichia coli C41(DE3), pET15b; stGlnK: Escherichia coli ArcticExpress (DE3) RIL, pET28b
Protocol: as §1

[4] = biological target: T3, AmtB–GlnK interaction (Escherichia coli, UniProt P69681); experiment: Native MS lipid titration, GlnK binding to apo or lipid-bound AmtB; coupling factors (allosteric modulation); conditions: for Kd: 50 µM ADP, 298 K; for Coupling factor a1: first bound lipid; for Coupling factor a2: second bound lipid; for Coupling factor a3: third bound lipid; for allosteric modulation of AmtB–GlnK (from coupling factors) / effect of lipid-binding events on K D,ALnG: result in words
T3 construct: pelB signal peptide (N, cleaved yes); 10x His-tag (N, cleaved yes); made in house; host or cells: AmtB: Escherichia coli C41(DE3), pET15b; stGlnK: Escherichia coli ArcticExpress (DE3) RIL, pET28b
Protocol: as §1

[5] = KD,AL1, first lipid binding to AmtB
[6] = KD,AL2, second lipid binding to AmtB
[7] = KD,AL3, third lipid binding to AmtB
[8] = KD,AGL1, first lipid binding to AmtB–GlnK
[9] = KD,AGL2, second lipid binding to AmtB–GlnK
[10] = KD,AGL3, third lipid binding to AmtB–GlnK
[11] = KD,AG, GlnK binding apo AmtB, from global fit of the titration with the named lipid
[12] = KD,AL2G, GlnK binding AmtB bound to 2 lipids
[13] = KD,AL3G, GlnK binding AmtB bound to 3 lipids
[14] = KD,ALG, GlnK binding AmtB bound to 1 lipid

T1 sequence (P69681 23-428): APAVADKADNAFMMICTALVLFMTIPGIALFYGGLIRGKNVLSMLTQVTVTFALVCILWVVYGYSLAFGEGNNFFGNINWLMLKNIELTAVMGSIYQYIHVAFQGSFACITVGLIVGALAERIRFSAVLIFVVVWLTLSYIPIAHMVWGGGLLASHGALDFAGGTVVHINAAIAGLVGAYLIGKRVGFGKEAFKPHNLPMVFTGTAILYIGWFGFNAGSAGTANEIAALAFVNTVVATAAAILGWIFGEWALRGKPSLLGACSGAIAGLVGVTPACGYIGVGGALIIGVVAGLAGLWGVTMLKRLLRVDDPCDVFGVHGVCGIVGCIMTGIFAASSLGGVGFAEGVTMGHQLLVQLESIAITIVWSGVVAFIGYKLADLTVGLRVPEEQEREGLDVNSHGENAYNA
T3 sequence (P0AC55 whole entry Y51F): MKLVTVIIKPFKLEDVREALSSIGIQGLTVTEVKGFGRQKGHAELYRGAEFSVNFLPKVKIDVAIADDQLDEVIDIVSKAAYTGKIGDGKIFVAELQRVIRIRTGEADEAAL
T3 sequence (P69681 23-428): as the sequence (P69681 23-428) above
T2 sequence (P0AC55 whole entry Y51F): as the sequence (P0AC55 whole entry Y51F) above
T2 sequence (P69681 23-428): as the sequence (P69681 23-428) above

| Structure (SMILES) | Kd ([1]; read-out: KD for GlnK binding the first ADP molecule) | Kd ([1]; read-out: KD for GlnK binding the second ADP molecule) | Kd ([1]; read-out: KD for GlnK binding the third ADP molecule) | Kd [2, 5] | Kd [2, 6] | Kd [2, 7] | Kd [3, 8] | Kd [3, 9] | Kd [3, 10] | Kd [4, 11] | Kd [4, 12] | Kd [4, 13] | Kd [4, 14] | Coupling factor a1 [4] | Coupling factor a2 [4] | Coupling factor a3 [4] | increase in the coupling factor per lipid-binding event ([4]; linear fit to the coupling factors as a function of bound lipid) | allosteric modulation of AmtB–GlnK (from coupling factors) [4] | effect of lipid-binding events on K D,ALnG [4] |
| --- | --- | --- | --- | --- | --- | --- | --- | --- | --- | --- | --- | --- | --- | --- | --- | --- | --- | --- | --- |
| Nc1ncnc2c1ncn2[C@@H]1O[C@H](COP(=O)(O)OP(=O)(O)O)[C@@H](O)[C@H]1O [ADP, adenosine diphosphate] | 20 µM | 56 µM | 100 µM |  |  |  |  |  |  |  |  |  |  |  |  |  |  |  |  |
| CCCCCCCC/C=C\CCCCCCCC(=O)OC[C@H](COP(=O)(O)OCCN)OC(=O)CCCCCCC/C=C\CCCCCCCC [DOPE (cis)] |  |  |  | 15.1 ± 0.63 µM | 36.9 ± 2.85 µM | 57.6 ± 13.3 µM | 12.3 ± 0.39 µM | 27.6 ± 1.09 µM | 32.9 ± 2.11 µM | 0.517 ± 0.0504 µM | 0.315 ± 0.0269 µM | 0.206 ± 0.0621 µM | 0.421 ± 0.0375 µM | 1.23 ± 0.02 | 1.34 ± 0.10 | 1.71 ± 0.31 |  |  |  |
| CCCCCCCC/C=C\CCCCCCCC(=O)O[C@H](COC(=O)CCCCCCCCCCCCCCC)COP(=O)(O)OCC(O)CO (stereo partly shown) [POPG] |  |  |  | 13.5 ± 0.73 µM | 33.3 ± 6.39 µM | 56.7 ± 11.8 µM | 12.04 ± 0.06 µM | 25.4 ± 1.11 µM | 34.3 ± 3.4 µM | 0.54 ± 0.0267 µM | 0.396 ± 0.0754 µM | 0.313 ± 0.162 µM | 0.485 ± 0.0356 µM | 1.12 ± 0.06 | 1.30 ± 0.21 | 1.74 ± 0.46 | 0.3 | positive allosteric modulation | decrease in K D,ALnG with each consecutive binding event |
| CCCCCCCC/C=C/CCCCCCCC(=O)OC[C@H](COP(=O)(O)OCCN)OC(=O)CCCCCCC/C=C/CCCCCCCC [DOPE (trans)] |  |  |  | 29.7 ± 2.18 µM | 159 ± 57.3 µM |  | 19 ± 0.42 µM | 46 µM |  | 0.556 ± 0.0327 µM | 0.121 ± 0.0256 µM |  | 0.356 ± 0.0141 µM | 1.57 ± 0.14 | 3.29 ± 0.82 | 5.28 ± 1.82 |  | greater positive allosteric modulation |  |
| CCCCCCCC/C=C\CCCCCCCC(=O)O[C@H](COC(=O)CCCCCCCCCCCCCCC)COP(=O)(O)O [POPA] |  |  |  | 8.11 ± 0.41 µM | 18.1 ± 1.18 µM | 24.7 ± 2.44 µM | 10 ± 0.31 µM | 19.8 ± 0.58 µM | 26.2 ± 2.19 µM | 0.517 ± 0.0463 µM | 0.707 ± 0.0945 µM | 0.75 ± 0.0992 µM | 0.644 ± 0.0735 µM | 0.81 ± 0.02 | 0.92 ± 0.04 | 0.94 ± 0.04 |  | slight negative allosteric modulation | each binding event weakening the molecular interaction between AmtB and GlnK |
| CCCCCCCCCCCCCC(=O)OC[C@H](COP(=O)(O)OCC(O)CO)OC(=O)CCCCCCCCCCCCC (stereo partly shown) [DMPG] |  |  |  | 6.78 ± 0.19 µM | 14.6 ± 1.2 µM | 20.27 ± 0.12 µM | 6.92 ± 0.33 µM | 14.1 ± 0.35 µM | 19.6 ± 0.33 µM | 0.551 ± 0.0134 µM | 0.543 ± 0.0387 µM | 0.523 ± 0.0284 µM | 0.561 ± 0.0235 µM | 0.99 ± 0.05 | 1.04 ± 0.04 | 1.04 ± 0.02 |  | neutral allosteric modulation |  |
| CCCCCCCC/C=C\CCCCCCCC(=O)O[C@H](COC(=O)CCCCCCCCCCCCCCCCC)COP(=O)(O)OCCN [SOPE] |  |  |  | 16.4 ± 1.39 µM | 46.6 ± 9.46 µM | 73.6 ± 22 µM | 14.5 ± 1.28 µM | 2.85 ± 2.32 µM | 45.2 ± 7.56 µM | 0.528 ± 0.0448 µM | 0.321 ± 0.0944 µM | 0.215 ± 0.0607 µM | 0.482 ± 0.0919 µM | 1.16 ± 0.19 | 1.60 ± 0.19 | 1.57 ± 0.25 |  |  |  |
